In the supplement of paper PMC4862054:

Experiments:
CAL-120 [1] = assay: normalised viability (% of control), CellTiter-Blue; higher = more viable cells (about 100 = DMSO control); conditions: 100 nM; incubation time: 72 h
Protocol: (§1)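 DSRT, CellTiter-Blue viability, 72 h incubation. Signal is normalised to DMSO and benzethonium chloride controls. Value is the normalised response at dose 3.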

HDQ-P1 [2] = assay: as above; conditions: 10 nM; incubation time: 72 h
Protocol: as §1

MDA-MB-453 = assay: as above; conditions: 10 nM; incubation time: 72 h
Protocol: as §1

MDA-MB-436 [3] = assay: as above; conditions: 100 nM; incubation time: 72 h
Protocol: as §1

CAL-85-1 = assay: as above; conditions: 10 nM; incubation time: 72 h
Protocol: as §1

MDA-MB-468 [4] = assay: as above; conditions: 100 nM; incubation time: 72 h
Protocol: as §1

HCC1937 [5] = assay: as above; conditions: 100 nM; incubation time: 72 h
Protocol: as §1

CAL-51 = assay: as above; conditions: 10 nM; incubation time: 72 h
Protocol: as §1

CAL-148 = assay: as above; conditions: 10 nM; incubation time: 72 h
Protocol: as §1

HCC1143 [6] = assay: as above; conditions: 100 nM; incubation time: 72 h
Protocol: as §1

SK-BR-3 [7] = assay: as above; conditions: 100 nM; incubation time: 72 h
Protocol: as §1

DU-4475 = assay: as above; conditions: 10 nM; incubation time: 72 h
Protocol: as §1

BT-474 [8] = assay: as above; conditions: 100 nM; incubation time: 72 h
Protocol: as §1

BT-549 [9] = assay: as above; conditions: 100 nM; incubation time: 72 h
Protocol: as §1

MFM-223 [10] = assay: as above; conditions: 100 nM; incubation time: 72 h
Protocol: as §1

Hs578T = assay: as above; conditions: 100 nM; incubation time: 72 h
Protocol: as §1

HCC1599 [11] = assay: as above; conditions: 100 nM; incubation time: 72 h
Protocol: as §1

MDA-MB-231 = assay: as above; conditions: 100 nM; incubation time: 72 h
Protocol: as §1

CAL-120 [12] = assay: normalised viability (% of control), CellTiter-Blue; higher = more viable cells (about 100 = DMSO control); conditions: incubation time: 72 h
Method in brief: (§2)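 Seeded at 20 µl suspension per well onto compound-loaded 384-well plates, breast cancer cell lines were incubated 72 h. CellTiter-Blue fluorescence at 560/590 nm was then read, with each plate normalised to vehicle (100) and a positive kill control (0). Normalised viability is reported at a single listed concentration of the series.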

HDQ-P1 [13] = assay: as above; conditions: incubation time: 72 h
Method in brief: as §2

MDA-MB-436 [14] = assay: as above; conditions: incubation time: 72 h
Method in brief: as §2

MDA-MB-468 [15] = assay: as above; conditions: incubation time: 72 h
Method in brief: as §2

HCC1143 [16] = assay: as above; conditions: incubation time: 72 h
Method in brief: as §2

SK-BR-3 [17] = assay: as above; conditions: incubation time: 72 h
Method in brief: as §2

BT-474 [18] = assay: as above; conditions: incubation time: 72 h
Method in brief: as §2

BT-549 [19] = assay: as above; conditions: incubation time: 72 h
Method in brief: as §2

HCC1937 [20] = assay: drug sensitivity score (DSS), CellTiter-Glo (DSS (AUC-based score)); higher = stronger drug effect (viability inhibition or cytotoxicity); extreme values may be limits of the assay; conditions: incubation time: 72 h
Method in brief: (§3)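 After 72 h of incubation in 384-well plates with compound at 5 concentrations (10-fold steps, 10,000-fold range set per compound), breast cancer cell lines seeded in 20 µl suspension were read first for CellTox Green fluorescence at 485/520 nm. CellTiter-Glo luminescence was measured next, after 10 min at room temperature. Normalisation on each plate used 0.1 % DMSO and a positive kill control, and the drug sensitivity score was computed from the area under the fitted dose-response curve.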

MFM-223 [21] = assay: as above; conditions: incubation time: 72 h
Method in brief: as §3

HCC1599 [22] = assay: as above; conditions: incubation time: 72 h
Method in brief: as §3

CC(=O)c1c(C)c2cnc(Nc3ccc(N4CCNCC4)cn3)nc2n(C2CCCC2)c1=O
Conditions	normalised viability [%]
BT-474 [8]	95.7
BT-549 [9]	108
CAL-51	107
CAL-85-1	102
CAL-120 [1]	73.8
CAL-148	91.3
DU-4475	107
HCC1143 [6]	82.3
HCC1599 [11]	88.2
HCC1937 [5]	97.2
HDQ-P1 [2]	108
Hs578T	66.3
MDA-MB-231	88.5
MDA-MB-436 [3]	111
MDA-MB-453	104
MDA-MB-468 [4]	105
MFM-223 [10]	88.1
SK-BR-3 [7]	78

normalised viability [%]
Conditions	BT-474 [18]	BT-549 [19]	CAL-120 [12]	HCC1143 [16]	HDQ-P1 [13]	MDA-MB-436 [14]	MDA-MB-468 [15]	SK-BR-3 [17]
3 nM	–	–	–	–	95.2	–	–	–
10 nM	108	101	79.4	74.2	–	78.1	115	100
30 nM	–	–	–	–	99.9	–	–	–
100 nM	–	–	–	–	99.5	–	–	–
1000 nM	105	109	65.2	73.5	–	36.7	99.8	110
10000 nM	67	85.2	57.4	61.8	–	89.8	85.3	63.5

Cn1cc(C2=Nc3cc(NC(=O)C(N)C4CCCCC4)cc4c3C2=CNNC4=O)cn1 (configuration not stated)
Conditions	drug sensitivity score	normalised viability [%]
BT-474 [8]	–	108
BT-549 [9]	–	100
CAL-51	–	98.2
CAL-85-1	–	81.8
CAL-120 [1]	–	89.9
CAL-148	–	93.1
DU-4475	–	108
HCC1143 [6]	–	101
HCC1599 [11]	–	75.9
HCC1599 [22]	20.3	–
HCC1937 [5]	–	90.7
HCC1937 [20]	4.78	–
HDQ-P1 [2]	–	98.4
Hs578T	–	87.3
MDA-MB-231	–	83.3
MDA-MB-436 [3]	–	93.4
MDA-MB-453	–	85.9
MDA-MB-468 [4]	–	106
MFM-223 [10]	–	69.2
MFM-223 [21]	12.2	–
SK-BR-3 [7]	–	38.4

normalised viability [%]
Conditions	BT-474 [18]	BT-549 [19]	CAL-120 [12]	HCC1143 [16]	HDQ-P1 [13]	MDA-MB-436 [14]	MDA-MB-468 [15]	SK-BR-3 [17]
3 nM	–	–	–	–	104	–	–	–
10 nM	103	80.9	96.5	85.5	–	102	112	81.8
30 nM	–	–	–	–	102	–	–	–
100 nM	–	–	–	–	106	–	–	–
1000 nM	104	37.4	57.2	57.2	–	70	19.4	13.8
10000 nM	98.9	18.6	27	25.6	–	32.8	10.4	10.8

COc1cc2c(cc1O)CC[C@@H]1[C@@H]2CC[C@]2(C)[C@@H](O)CC[C@@H]12 [2-methoxyestradiol]
Conditions	drug sensitivity score	normalised viability [%]
BT-474 [8]	–	121
BT-549 [9]	–	91.7
CAL-51	–	118
CAL-85-1	–	101
CAL-120 [1]	–	87.9
CAL-148	–	93.3
DU-4475	–	106
HCC1143 [6]	–	99.8
HCC1599 [11]	–	95
HCC1599 [22]	2.6	–
HCC1937 [5]	–	103
HCC1937 [20]	0	–
HDQ-P1 [2]	–	98.8
Hs578T	–	103
MDA-MB-231	–	94.3
MDA-MB-436 [3]	–	100
MDA-MB-453	–	95.3
MDA-MB-468 [4]	–	102
MFM-223 [10]	–	108
MFM-223 [21]	4.75	–
SK-BR-3 [7]	–	99.2

normalised viability [%]
Conditions	BT-474 [18]	BT-549 [19]	CAL-120 [12]	HCC1143 [16]	HDQ-P1 [13]	MDA-MB-436 [14]	MDA-MB-468 [15]	SK-BR-3 [17]
3 nM	–	–	–	–	103	–	–	–
10 nM	133	89.1	105	92.4	–	104	111	97.6
30 nM	–	–	–	–	93.9	–	–	–
100 nM	–	–	–	–	93.2	–	–	–
1000 nM	64.3	51.7	61.4	82.7	–	60.5	97.2	101
10000 nM	48.5	17.6	24.2	37.1	–	44.6	50.1	20.2

Cc1sc2c(c1C)C(c1ccc(Cl)cc1)=N[C@@H](CC(=O)OC(C)(C)C)c1nnc(C)n1-2 [(+)JQ1]
Conditions	drug sensitivity score	normalised viability [%]
BT-474 [8]	–	110
BT-549 [9]	–	80.9
CAL-51	–	98.5
CAL-85-1	–	101
CAL-120 [1]	–	79.1
CAL-148	–	94.7
DU-4475	–	88.3
HCC1143 [6]	–	92.2
HCC1599 [11]	–	100
HCC1599 [22]	0	–
HCC1937 [5]	–	98.4
HCC1937 [20]	3.6	–
HDQ-P1 [2]	–	98.4
Hs578T	–	72.6
MDA-MB-231	–	95.9
MDA-MB-436 [3]	–	136
MDA-MB-453	–	108
MDA-MB-468 [4]	–	108
MFM-223 [10]	–	85.1
MFM-223 [21]	8.38	–
SK-BR-3 [7]	–	98.3

normalised viability [%]
Conditions	BT-474 [18]	BT-549 [19]	CAL-120 [12]	HCC1143 [16]	HDQ-P1 [13]	MDA-MB-436 [14]	MDA-MB-468 [15]	SK-BR-3 [17]
3 nM	–	–	–	–	102	–	–	–
10 nM	118	108	83.2	91.1	–	105	107	117
30 nM	–	–	–	–	113	–	–	–
100 nM	–	–	–	–	107	–	–	–
1000 nM	95.1	53.8	47.7	67.6	–	86.3	71.8	53.9
10000 nM	102	36.9	49.2	58.7	–	99.7	52.2	51.8
